Experimental findings from patent US10188615B2, “Alkoxy compounds for disease treatment” (Acucela Inc., priority 2007, dated 2019) are described below.

Assay [1] deals with recombinant human RPE65 and LRAT (Homo sapiens (Human), UniProt Q16518). As to the kind of experiment: Human in vitro isomerase inhibition assay. The class given is biochemical. As to conditions: Human in vitro Inhibition data; inhibition of 11-cis-retinol formation; HEK293 homogenate, all-trans-retinol about 20 μM, 37° C., one hour; given as ranges. On the procedure: The concentration dependent effect of the compounds disclosed herein on the retinol isomerization reaction was also evaluated with a recombinant human enzyme system. […] A homogenate of HEK293 cell clone expressing recombinant human RPE65 and LRAT were the source of the visual enzymes, and exogenous all-trans-retinol (about 20 μM) was used as the substrate. Recombinant human CRALBP (about 80 ug/mL) was added to enhance the formation of 11 cis-retinal. The 200 μL Bis-Tris Phosphate buffer (10 mM, pH 7.2) based reaction mixture also contains 0.5% BSA, and 1 mM NaPPi. In this assay, the reaction was carried out at 37° C. in duplicates for one hour and was terminated by addition of 300 μL methanol. The amount of reaction product, 11-cis-retinol, was measured by HPLC analysis following Heptane extraction of the reaction mixture. […] The ability of the numerous compounds disclosed herein to inhibit isomerization reaction is quantified and the respective IC50 value is determined.
Chain of recombinant human RPE65 and LRAT (Q16518 2-533): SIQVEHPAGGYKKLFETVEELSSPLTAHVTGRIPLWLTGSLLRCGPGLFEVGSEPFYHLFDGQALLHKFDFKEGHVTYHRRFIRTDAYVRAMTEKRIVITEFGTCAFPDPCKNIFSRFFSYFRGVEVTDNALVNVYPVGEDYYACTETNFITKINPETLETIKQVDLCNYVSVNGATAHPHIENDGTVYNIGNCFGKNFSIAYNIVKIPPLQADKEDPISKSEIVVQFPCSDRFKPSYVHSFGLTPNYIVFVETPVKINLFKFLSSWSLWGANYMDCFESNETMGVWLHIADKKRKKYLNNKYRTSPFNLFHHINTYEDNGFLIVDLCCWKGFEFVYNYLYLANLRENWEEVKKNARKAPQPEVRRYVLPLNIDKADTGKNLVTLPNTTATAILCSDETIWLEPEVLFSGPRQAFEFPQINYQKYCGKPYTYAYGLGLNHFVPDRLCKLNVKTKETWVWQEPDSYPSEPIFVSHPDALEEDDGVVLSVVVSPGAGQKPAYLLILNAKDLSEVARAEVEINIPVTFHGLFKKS

The target of another assay is isomerase (Mus musculus (Mouse), UniProt Q91ZQ5). As to the kind of experiment: In vivo murine isomerase assay (recovery of 11-cis-retinal after photobleaching). Further details: species or system mice. As to conditions: read-out: % Inhibition 1 mg/kg, 4 h. On the procedure: The capability of compounds described herein to inhibit isomerase was determined by an in vivo murine isomerase assay. Brief exposure of the eye to intense light (“photobleaching” of the visual pigment or simply “bleaching”) is known to photo-isomerize almost all 11-cis-retinal in the retina. The recovery of 11-cis-retinal after bleaching can be used to estimate the activity of isomerase in vivo. Delayed recovery, as represented by lower 11-cis-retinal oxime levels, indicates inhibition of isomerization reaction.
Chain of isomerase (Q91ZQ5 whole entry): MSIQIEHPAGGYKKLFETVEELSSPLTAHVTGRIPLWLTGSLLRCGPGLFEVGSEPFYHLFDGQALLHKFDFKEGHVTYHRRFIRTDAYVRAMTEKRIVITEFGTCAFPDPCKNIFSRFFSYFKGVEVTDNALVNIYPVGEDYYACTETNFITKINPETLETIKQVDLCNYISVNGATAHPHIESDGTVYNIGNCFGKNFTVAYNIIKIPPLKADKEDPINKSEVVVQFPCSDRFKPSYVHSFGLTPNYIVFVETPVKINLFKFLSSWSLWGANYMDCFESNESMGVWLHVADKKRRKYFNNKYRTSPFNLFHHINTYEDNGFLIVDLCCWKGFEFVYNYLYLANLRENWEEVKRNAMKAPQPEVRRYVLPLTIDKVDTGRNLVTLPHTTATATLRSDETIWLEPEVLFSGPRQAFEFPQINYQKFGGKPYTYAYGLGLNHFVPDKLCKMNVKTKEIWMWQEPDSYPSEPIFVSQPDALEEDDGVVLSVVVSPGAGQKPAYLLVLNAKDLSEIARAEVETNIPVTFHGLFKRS
The mice were allowed to recover 2 hours in the dark. The animals were then sacrificed by carbon dioxide inhalation. Retinoids were extracted from the eye and the regeneration of 11-cis-retinal was assessed at various time intervals.
After the mice were sacrificed, the eyes were immediately removed and placed in liquid nitrogen for storage.
The eyes were placed in 500 μL of bis-tris propane buffer (10 mM, pH ˜7.3) and 20 µL of 0.8M hydroxile amine (pH-7.3). The eyes were cut up into small pieces with small iris scissors and then thoroughly homogenized at 30000 rpm with a mechanical homogenizer (Polytron PT 1300 D) in the tube until no visible tissue remained. 500 μL of methanol and 500 μL of heptane were added to each tube. The tubes were attached to a vortexer so that the contents were mixed thoroughly for 15 minutes in room temperature. The organic phase was separated from the aqueous phase by centrifugation for 10 min at 13K rpm, 4° C. 240 μL of the solution from the top layer (organic phase) was removed and transferred to clean 300 μl glass inserts in HPLC vials using glass pipette and the vials were crimped shut tightly.
Loading volume for each sample is 100 μl; detection wavelength is 360 nm. The area under the curve for 11-cis retinal oxime was calculated by Agilent Chemstation software and was recorded manually. Data processing was performed using Prizm software.
Positive control mice (no compound administered) were sacrificed fully dark-adapted and the eye retinoids analyzed. Light (bleached) control mice (no compound administered) were sacrificed and retinoids isolated and analyzed immediately after light treatment.
Mice were sacrificed 2 hours after bleaching, eyes were enucleated, and retinoid content was analyzed by HPLC.
Recovery control mice (vehicle-only treated) were light-treated and left to recover for 2 hours in the dark before sacrifice and analysis. Light control mice (vehicle only treated) were sacrificed for analysis immediately after photo-bleaching.

Bounds are passed on as bounds.

`CCC(O)(CC)COc1cccc(C(O)CCN)c1` (stereo not drawn) [Example 30, 3-((3-(3-Amino-1-hydroxypropyl)phenoxy)methyl)pentan-3-ol]: the half-maximal inhibitory concentration (IC50) in assay [1] is at most 10 nM. The inhibition at 1 mg/kg at isomerase came to 57%.
For `NCCC(O)c1cccc(OCC2CCC2)c1` (stereo not drawn) [Example 34, 3-Amino-1-(3-(cyclobutylmethoxy)phenyl)propan-1-ol], the IC50 in assay [1] is at most 10 nM.
For `NCCOc1cccc(OCCc2ccccc2)c1` [Example 47, 2-(3-Phenethoxyphenoxy)ethanamine], on isomerase, the inhibition at 1 mg/kg amounted to 6%.
As for `C[C@@H](CN)[C@H](O)c1cccc(OCC2CCCCC2)c1` [Example 73, (1S,2S)-3-Amino-1-(3-(Cyclohexylmethoxy)Phenyl)-2-Methylpropan-1-Ol], the inhibition at 1 mg/kg at isomerase is 23%.
As to `COCCOCCOCC(=O)NCCC(O)c1cccc(OCC2CCCCC2)c1` (stereo not drawn) [Example 77, N-(3-(3-(Cyclohexylmethoxy)phenyl)-3-hydroxypropyl)-2-(2-(2-methoxyethoxy)ethoxy)acetamide], the inhibition at 1 mg/kg on isomerase worked out at 22%.
Regarding `CCCCCOc1cccc(C(O)CCN)c1` (stereo not drawn) [Example 87, 3-Amino-1-(3-(pentyloxy)phenyl)propan-1-ol], the IC50 in assay [1] is at most 10 nM.
In the case of `CC(C)CCOc1cccc(C(O)CCN)c1` (stereo not drawn) [Example 107, 3-Amino-1-(3-(isopentyloxy)phenyl)propan-1-ol], on isomerase, the inhibition at 1 mg/kg amounted to 62%.
On to `Cc1ccc(COc2cccc(CCCN)c2)cc1` [Example 119, 3-(3-(4-Methylbenzyloxy)phenyl)propan-1-amine], for which the “IC50 (μM)” value in assay [1] was “No detectable”.
For the molecule `NCCCc1cccc(OCc2ccc(Cl)cc2)c1` [Example 120, 3-(3-(4-Chlorobenzyloxy)phenyl)propan-1-amine], the “IC50 (μM)” value in assay [1] was “No detectable”.
Consider `COc1ccc(COc2cccc(CCCN)c2)cc1` [Example 121, 3-(3-(4-Methoxybenzyloxy)phenyl)propan-1-amine], for which the “IC50 (μM)” value in assay [1] was “No detectable”.
As to `NCCS(=O)(=O)c1cccc(OCC2CCCCC2)c1` [Example 125, 2-(3-(Cyclohexylmethoxy)phenylsulfonyl)ethanamine], the inhibition at 1 mg/kg on isomerase worked out at 4%.
In the case of `N=C(N)CC(O)c1cccc(OCC2CCCCC2)c1` (stereo not drawn) [Example 130, 3-(3-(Cyclohexylmethoxy)phenyl)-3-hydroxypropanimidamide], the inhibition at 1 mg/kg at isomerase was found to be 3%.
For `NCCOc1cccc(OCCO)c1` [Example 141, 2-(3-(2-Aminoethoxy)phenoxy)ethanol], in assay [1], the “IC50 (μM)” value is reported as “No detectable”.
Regarding `NCCC(O)c1cccc(OCC2CCC(F)(F)CC2)c1` (stereo not drawn) [Example 169, 3-Amino-1-(3-((4,4-difluorocyclohexyl)methoxy)phenyl)propan-1-ol], the half-maximal inhibitory concentration (IC50) in assay [1] was at most 10 nM.
In the case of `COC(=O)c1cc(CCCN)cc(OCC2CCCCC2)c1` [Example 170, Methyl 3-(3-aminopropyl)-5-(cyclohexylmethoxy)benzoate], the half-maximal inhibitory concentration (IC50) in assay [1] was over 10000 nM.
`NCC[C@@H](O)c1cccc(OC[C@H]2CC[C@@H](O)CC2)c1` [Example 171, (1,4-Cis)-4-((3-((R)-3-Amino-1-Hydroxypropyl)Phenoxy)Methyl)Cyclohexanol]: the 50% inhibitory concentration (IC50) in assay [1] is at most 10 nM.
`NCC[C@@H](O)c1cccc(OC[C@H]2CC[C@H](O)CC2)c1` [Example 172, (1,4-Trans)-4-((3-((R)-3-Amino-1-Hydroxypropyl)Phenoxy)Methyl)Cyclohexanol]: the IC50 in assay [1] was at most 10 nM.
As for `NCC[C@@H](O)c1cccc(OC[C@@H]2CCCC[C@H]2O)c1` [Example 175, (1,2-trans)-2-((3-((R)-3-Amino-1-hydroxypropyl)phenoxy)methyl)cyclohexanol], the half-inhibitory concentration (IC50) in assay [1] is at most 10 nM.
For `NCC[C@@H](O)c1cccc(OC[C@H]2CCCC[C@H]2O)c1` [Example 176, (1,2-cis)-2-((3-((R)-3-Amino-1-hydroxypropyl)phenoxy)methyl)cyclohexanol], in assay [1], the 50% inhibitory concentration (IC50) was at most 10 nM.
`CN(C)CCC(=O)c1cccc(OCC2CCCCC2)c1` [Example 182, 1-(3-(Cyclohexylmethoxy)phenyl)-3-(dimethylamino)propan-1-one]: the concentration for half-maximal inhibition (IC50) in assay [1] is over 10000 nM.
